Experimental data reported in ChEMBL document CHEMBL4483862, “Open-source discovery of chemical leads for next-generation chemoprotective antimalarials” (2018).

System: Plasmodium berghei
Test: Luciferase/luciferin-expressing antifolate-resistant parasites were used to infect a culture of HepG2 cells that were pre-incubated with compounds. Infected hepatocytes emit light due to the luciferase reaction. Assay results are presented as the percent inhibition of light emission compared to control. […]
Type: functional
Details: sporozoite; for IC90: read-out: LUCIFERASE INFECTION ASSAY - IC90
[1] = read-out: LUCIFERASE INFECTION ASSAY - IC50

SMILES | IC90 [µM] | other results
C#CCNS(=O)(=O)c1ccc(C(=O)Nc2ccccc2O)cc1 | 7.83 | IC50 (PBLUC_HILL_SLOPE 1.57, PBLUC_R_SQUARED 0.611, read-out: LUCIFERASE INFECTION ASSAY - IC50): 1.93 µM
CC1CCC/C(=C(/C#N)c2nc(-c3ccccc3O)cs2)C1 (centres undefined) | 5.31 | IC50 (HEPG2TOX_HILL_SLOPE 34.1, 11.7, HEPG2TOX_R_SQUARED 0.352, 0.945, PBLUC_HILL_SLOPE 13.4, PBLUC_R_SQUARED 0.235, read-out: LUCIFERASE INFECTION ASSAY - IC50): 4.51 µM
OCCNc1nc(Oc2ccc(-c3ccccc3)cc2)nc2ccccc12 | 1.97 | IC50 (PBLUC_HILL_SLOPE 1.95, PBLUC_R_SQUARED 0.572, read-out: LUCIFERASE INFECTION ASSAY - IC50): 0.64 µM
CN(C)C(=O)c1ccc(-c2cc3c(Nc4cccc(C(F)(F)F)c4)nccc3n2C)cc1 | 6.54 | IC50 (PBLUC_HILL_SLOPE 4.75, PBLUC_R_SQUARED 0.5, read-out: LUCIFERASE INFECTION ASSAY - IC50): 4.12 µM
Cc1nc(-c2ccc(CNC(=O)COc3ccccc3-c3ccccc3)o2)cs1 | > 10 | IC50 [1]: > 10 µM
CC(C)c1ccc(NC(=O)Nc2csc(Cc3c(Cl)cccc3Cl)n2)cc1 | > 7.85 | IC50 [1]: > 7.85 µM
CCn1c(-c2ccccc2)c(C(=O)COc2ccc(F)cc2Br)c2ccccc21 | > 10 | IC50 (FFLUC_HILL_SLOPE 1400, FFLUC_R_SQUARED 0.245, read-out: LUCIFERASE INFECTION ASSAY - IC50): > 10 µM
COc1ccc(Cl)cc1C(=O)NNC(=O)CSc1nccn1-c1ccc(C)c(C)c1 | 6.58 | IC50 (PBLUC_HILL_SLOPE 46.1, PBLUC_R_SQUARED 0.54, read-out: LUCIFERASE INFECTION ASSAY - IC50): 6.27 µM
Cc1cccc(-c2cn3c(-c4ccc(N(C)C)cc4)cnc3cn2)c1C | 1.28 | IC50 (HEPG2TOX_HILL_SLOPE 0.565, HEPG2TOX_R_SQUARED 0.75, PBLUC_HILL_SLOPE 0.899, PBLUC_R_SQUARED 0.883, read-out: LUCIFERASE INFECTION ASSAY - IC50): 0.111 µM
COc1ccc(/C=c2\s/c(=C\C(=O)C(C)(C)C)[nH]c2=O)cc1OCc1cccnc1 | > 10 | IC50 [1]: > 10 µM
COc1ccc2c(C)nc(Nc3nc(O)c4ccccc4n3)nc2c1 | 3.1 | IC50 (HEPG2TOX_HILL_SLOPE 241, HEPG2TOX_R_SQUARED 0.475, PBLUC_HILL_SLOPE 24.4, PBLUC_R_SQUARED 0.363, read-out: LUCIFERASE INFECTION ASSAY - IC50): 2.83 µM
CC1CCCCN1CCCNC(=S)Nc1cc(C(F)(F)F)cc(C(F)(F)F)c1 (centres undefined) | > 7.72 | IC50 (PBLUC_HILL_SLOPE 2.02, PBLUC_R_SQUARED 0.36, read-out: LUCIFERASE INFECTION ASSAY - IC50): 3.73 µM
O=[N+]([O-])c1ccc(Oc2cncc(Cl)c2)c(-c2nnc(-c3ccc(C(F)(F)F)cc3)o2)c1 | > 7.13 | IC50 (HEPG2TOX_HILL_SLOPE 2.45, HEPG2TOX_R_SQUARED 0.932, PBLUC_HILL_SLOPE 14.3, PBLUC_R_SQUARED 0.511, read-out: LUCIFERASE INFECTION ASSAY - IC50): 6.55 µM
Cc1cc(-c2csc(Cc3ccccc3)n2)c(C)n1NC(=O)c1nn(C)c(=O)c2ccccc12 | > 10 | IC50 [1]: > 10 µM
CSc1sc(C(=O)N/N=C/c2ccccc2Cl)c2c1C(O)CCC2 (centres undefined) | > 8.66 | IC50 (HEPG2TOX_HILL_SLOPE 0.679, HEPG2TOX_R_SQUARED 0.968, PBLUC_HILL_SLOPE 1.34, PBLUC_R_SQUARED 0.516, read-out: LUCIFERASE INFECTION ASSAY - IC50): 2.1 µM
CN(C)CC(C)(C)CNc1nn2cc(-c3ccccc3)nc2s1 | > 10 | IC50 (PBLUC_HILL_SLOPE 0.619, PBLUC_R_SQUARED 0.654, read-out: LUCIFERASE INFECTION ASSAY - IC50): 0.732 µM
CN1C(=O)/C(=C\c2ccccc2[N+](=O)[O-])c2ccccc21 | > 10 | IC50 [1]: 9.31 µM
Cc1ccc(-c2csc(NCSc3cccc4cccnc34)n2)cc1 | > 10 | IC50 [1]: > 10 µM
CN(C)c1ccccc1-c1cnc2sc(NCCc3ccncc3)nn12 | > 9.05 | IC50 (HEPG2TOX_HILL_SLOPE 0.921, HEPG2TOX_R_SQUARED 0.497, read-out: LUCIFERASE INFECTION ASSAY - IC50): > 9.05 µM
CCC(=O)Nc1c(-c2nc3ccccc3[nH]2)c(C)c(C)n1C1CCCC1 | > 9.42 | IC50 (PBLUC_HILL_SLOPE 2, PBLUC_R_SQUARED 0.418, read-out: LUCIFERASE INFECTION ASSAY - IC50): 6.01 µM
CCNC(=O)C1CCCN(Cc2cc(C(F)(F)F)ccc2Cl)CC1 (centres undefined) | 3.4 | IC50 (PBLUC_HILL_SLOPE 383, PBLUC_R_SQUARED 0.415, read-out: LUCIFERASE INFECTION ASSAY - IC50): 3.38 µM

SMILES | IC90 [µM] | other results
Cc1cc(C)c(S(=O)(=O)N2CCC(C(=O)N3CCn4c3nc3ccccc34)CC2)c(C)c1 | > 10 | IC50 (PBLUC_HILL_SLOPE 1.44, PBLUC_R_SQUARED 0.637, read-out: LUCIFERASE INFECTION ASSAY - IC50): 3.45 µM
CCCc1cc(NCCCN2CCOCC2)n2nc(C)c(-c3ccccc3)c2n1 | > 8.39 | IC50 [1]: > 8.39 µM
C=CCn1c(SCc2c(C(=O)OCC)sc(N)c2C#N)nnc1-c1ccc(Cl)cc1Cl | > 10 | IC50 [1]: > 10 µM
CN(C)C(S)=Nc1ccc(Cl)cc1 | > 15.4 | IC50 [1]: > 15.4 µM
Cc1noc(C)c1COc1ccc(C(=O)OCC(=O)N(C)C2(C#N)CCCCC2)cc1 | > 10 | IC50 [1]: > 10 µM
CC(=O)NC(C)CCc1ccc(-c2csc(-c3ccc(NC(=O)C4CC4)cc3)n2)cc1 (centres undefined) | 0.146 | IC50 (PBLUC_HILL_SLOPE 9.6, PBLUC_R_SQUARED 0.721, read-out: LUCIFERASE INFECTION ASSAY - IC50): 0.116 µM
Cn1c(C(C#N)C(=O)c2cc(-c3ccccc3)nc3ccccc23)nc2ccccc21 (centres undefined) | 7.46 | IC50 (HEPG2TOX_HILL_SLOPE 3.46, HEPG2TOX_R_SQUARED 0.527, PBLUC_HILL_SLOPE 3.86, PBLUC_R_SQUARED 0.794, read-out: LUCIFERASE INFECTION ASSAY - IC50): 4.22 µM
NC(=O)c1cccc(-c2cn3c(-c4cccc(O)c4)cnc3cn2)c1 | > 9.99 | IC50 (PBLUC_HILL_SLOPE 9.23, PBLUC_R_SQUARED 0.539, read-out: LUCIFERASE INFECTION ASSAY - IC50): 8.89 µM
Cc1cc(SCCN)c2cc(F)ccc2n1 | > 14 | IC50 (HEPG2TOX_HILL_SLOPE 2.08, HEPG2TOX_R_SQUARED 0.947, PBLUC_HILL_SLOPE 2.61, PBLUC_R_SQUARED 0.644, read-out: LUCIFERASE INFECTION ASSAY - IC50): 6.26 µM
O=C(Cn1ncc(Cl)c(Cl)c1=O)NCC(=O)Nc1ccc(F)c(F)c1F | 6.18 | IC50 (HEPG2TOX_HILL_SLOPE 18.2, HEPG2TOX_R_SQUARED 0.93, PBLUC_HILL_SLOPE 2.22, PBLUC_R_SQUARED 0.782, read-out: LUCIFERASE INFECTION ASSAY - IC50): 2.3 µM
CCN(Cc1ccccc1)S(=O)(=O)c1ccc2c(c1)CCCN2C(C)=O | > 10 | IC50 (PBLUC_HILL_SLOPE 1.76, PBLUC_R_SQUARED 0.382, read-out: LUCIFERASE INFECTION ASSAY - IC50): 8.69 µM
CC(C)(C)c1ccc(-c2n[nH]c(NC(=O)c3ccccc3Cl)c2Br)cc1 | > 7.63 | IC50 (PBLUC_HILL_SLOPE 11.9, PBLUC_R_SQUARED 0.175, read-out: LUCIFERASE INFECTION ASSAY - IC50): 7.07 µM
Cc1cccc(/C=C(/C(=O)NCc2ccc(NC(=O)C(C)C)cc2)c2cccs2)c1 | 4.58 | IC50 (PBLUC_HILL_SLOPE 14.7, PBLUC_R_SQUARED 0.598, read-out: LUCIFERASE INFECTION ASSAY - IC50): 3.95 µM
CS(=O)(=O)Nc1cccc(-c2cn3c(-c4cccc(O)c4)cnc3cn2)c1 | 8.16 | IC50 (HEPG2TOX_HILL_SLOPE 7.05, HEPG2TOX_R_SQUARED 0.671, PBLUC_HILL_SLOPE 23.9, PBLUC_R_SQUARED 0.257, read-out: LUCIFERASE INFECTION ASSAY - IC50): 7.45 µM
Clc1ccc(SCc2cc(N3CCCC3)nc(-c3ccccn3)n2)cc1 | 2.94 | IC50 (HEPG2TOX_HILL_SLOPE 2.23, HEPG2TOX_R_SQUARED 0.944, PBLUC_HILL_SLOPE 20.5, PBLUC_R_SQUARED 0.394, read-out: LUCIFERASE INFECTION ASSAY - IC50): 2.64 µM
Cc1cc(NC(=O)c2ccc(-c3cccc4ccccc34)s2)no1 | > 10 | IC50 (PBLUC_HILL_SLOPE 2.6, PBLUC_R_SQUARED 0.519, read-out: LUCIFERASE INFECTION ASSAY - IC50): 5.02 µM
O=C(NC1CC1)c1ccc(-c2cnc3c(NCc4ccc5c(c4)OCO5)nccn23)cc1 | 2.99 | IC50 (HEPG2TOX_HILL_SLOPE 2.15, HEPG2TOX_R_SQUARED 0.624, PBLUC_HILL_SLOPE 12.5, PBLUC_R_SQUARED 0.564, read-out: LUCIFERASE INFECTION ASSAY - IC50): 2.51 µM
CN(c1ccccc1)c1ccc(/C=N/NC(=O)c2ccc3c(=O)n4c(nc3c2)CCCCC4)cc1 | > 10 | IC50 (PBLUC_HILL_SLOPE 3.8, PBLUC_R_SQUARED 0.483, read-out: LUCIFERASE INFECTION ASSAY - IC50): 6.28 µM
Cc1nn(-c2ccccc2)c(C)c1C(=O)C(=O)NC(C)c1ccc(S(N)(=O)=O)cc1 (centres undefined) | > 10 | IC50 [1]: > 10 µM
CCCCNC(=O)c1c(NC(=O)c2c(F)ccc(F)c2F)nc2ccccn12 | > 8.45 | IC50 [1]: > 8.45 µM
COc1ccc(NS(=O)(=O)c2cc(NC(=O)c3cc(C4CC4)on3)ccc2N2CCCCC2)cc1 | > 10 | IC50 (FFLUC_HILL_SLOPE 8.45, FFLUC_R_SQUARED 0.551, read-out: LUCIFERASE INFECTION ASSAY - IC50): > 10 µM
